This note sets out measurements from BindingDB's records for doi:10.1021/jm0607451 (Wyeth Research, 2006).

SMILES strings stand for the structures.

This assay has as its target Pepsin A-4 (Homo sapiens, UniProt P0DJD7). Kind of assay: FRET-based Peptide Cleavage Assay. Conditions: pH 4.5; 22 °C.

Chain of Pepsin A-4 (P0DJD7 whole entry): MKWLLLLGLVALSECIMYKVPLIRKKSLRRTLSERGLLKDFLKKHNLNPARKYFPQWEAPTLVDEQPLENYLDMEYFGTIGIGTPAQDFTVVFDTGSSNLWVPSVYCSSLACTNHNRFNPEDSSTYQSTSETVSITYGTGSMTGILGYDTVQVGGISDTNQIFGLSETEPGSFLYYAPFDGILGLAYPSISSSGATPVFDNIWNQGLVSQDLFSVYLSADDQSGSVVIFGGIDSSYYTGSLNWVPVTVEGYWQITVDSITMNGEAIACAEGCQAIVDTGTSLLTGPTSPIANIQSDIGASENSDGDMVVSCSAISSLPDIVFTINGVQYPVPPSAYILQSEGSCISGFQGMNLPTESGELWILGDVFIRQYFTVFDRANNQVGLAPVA

The IC50 is the concentration needed to halve the response being measured. A lower IC50 goes with inhibition by little substance. In turn, `NC(N)=NC(=O)Cn1c(-c2ccccc2)ccc1C12CC3CC(CC(C3)C1)C2` [2-[2-(adamantan-1-yl)-5-phenyl-1H-pyrrol-1-yl]-N-(diaminomethylidene)acetamide] displayed a half-maximal inhibitory concentration (IC50) above 50 µM. `CCCOc1ccc(-c2ccc(-c3ccccc3Cl)n2CC(=O)NC(=N)NCCCO)cc1` [N-[(1Z)-amino[(3-hydroxypropyl)amino]methylidene]-2-[2-(2-chlorophenyl)-5-(4-propoxyphenyl)-1H-pyrrol-1-yl]acetamide] showed an IC50 above 50 µM. Next, `CC(=O)c1ccc(Oc2ccc(-c3ccc(-c4ccccc4Cl)n3CC(=O)NC(=N)N)cc2)cc1` [2-[2-(2-chlorophenyl)-5-[4-(4-acetylphenoxy)phenyl]-1H-pyrrol-1-yl]-N-(diaminomethylidene)acetamide]: above 50 µM; `N/C(=N/C(=O)Cn1c(-c2ccccc2)ccc1C12CC3CC(CC(C3)C1)C2)NCCCO` [2-[2-(adamantan-1-yl)-5-phenyl-1H-pyrrol-1-yl]-N-[(1Z)-amino[(3-hydroxypropyl)amino]methylidene]acetamide]: above 50 µM.
